# Results: patent US20250144067A1, “PERSONALIZED STARVATION THERAPY FOR CANCER” (Faeth Therapeutics, Inc., priority 2021, published 2025)
# Counter-ions that a name gives are not always drawn. Like-named read-outs stand apart in the source and are kept apart here.
# How the values were obtained:
# [1] = test system: NCI-H292 lung cancer cells; assay: FDA drug screening, complete media vs cholesterol-free media without statin (TABLE 1); format: cell-based, human
# [2] = test system: NCI-H292 lung cancer cells; assay: FDA drug screening, complete media vs cholesterol-free media with simvastatin (TABLE 2); format: cell-based, human
# [3] = Complete minus Cholesterol-free, >0 enhanced anti-cancer activity, about 0 neutral, <0 antagonist
# [4] = NCI-H292 cells, cholesterol-free media without statin
# [5] = NCI-H292 cells, drug in cholesterol-free media with simvastatin 0.04 μM
# [6] = NCI-H292 cells, drug in complete media
# [7] = complete media vs cholesterol-free media + simvastatin (0.04 μM), >0 enhanced anti-cancer activity, about 0 neutral, <0 antagonist
# [8] = NCI-H292 cells, cholesterol-free media with simvastatin 0.04 μM, cell growth value in FDA drug screen
# [9] = NCI-H292 cells, complete media, cell growth value in FDA drug screen
# [10] = complete media minus cholesterol-free media + simvastatin, >0 enhanced anti-cancer activity, about 0 neutral, <0 antagonist
# [11] = NCI-H292 cells, cholesterol-free media without statin, FDA drug library screen
# [12] = NCI-H292 cells, complete media, FDA drug library screen
# [13] = complete vs cholesterol-free media, >0 enhanced anti-cancer activity, about 0 neutral, <0 antagonist
# [14] = NCI-H292 cells, FDA library drug in cholesterol-free media with simvastatin 0.04 μM
# [15] = NCI-H292 cells, FDA library drug in complete media
# [16] = NCI-H292 cells, FDA drug library screen, cholesterol-free media with simvastatin 0.04 μM
# [17] = NCI-H292 cells, FDA drug library screen, complete media
# [18] = Complete minus Cholesterol-free, greater than 0 enhanced anti-cancer activity, about 0 neutral, below 0 antagonist
# [19] = NCI-H292 cells, FDA drug library screen, cholesterol-free media without statin
# [20] = Complete minus Cholesterol-free, […]
# [21] = NCI-H292 cells, cholesterol-free media with simvastatin 0.04 μM, FDA drug library screen (TABLE 2)
# [22] = NCI-H292 cells, complete media, FDA drug library screen (TABLE 2)
# [23] = complete media minus cholesterol-free media + simvastatin (0.04 μM), […]
# [24] = complete vs cholesterol-free media, greater than 0 enhanced anti-cancer activity, about 0 neutral, below 0 antagonists
# [25] = Complete minus Cholesterol-free, greater than 0 enhanced anti-cancer activity, about 0 neutral, below 0 antagonists
# [26] = NCI-H292 cells in cholesterol-free media without statin
# [27] = NCI-H292 cells in complete media
smiles,measurement,setting,value
COc1ccc(CN2CCNCC2)c(OC)c1OC [Trimetazidine (dihydrochloride)],Difference,[1]; [3],−0.30
same,Cholesterol-free,[1]; [4],1.134
same,Complete,"[1]; NCI-H292 cells, complete media",0.836
same,Cholesterol-free media + simvastatin (0.04 μM),[2]; [5],1.296
same,Complete Media,[2]; [6],1.112
same,Difference,[2]; [7],−0.18
CN1C(=O)OC(C)(C)C1=O [Trimethadione],Difference,[1]; [3],−0.23
same,Cholesterol-free,[1]; [4],1.085
same,Complete,"[1]; NCI-H292 cells, complete media",0.857
same,Cholesterol-free media + simvastatin (0.04 μM),[2]; [8],1.017
same,Complete Media,[2]; [9],1.08
same,Difference,[2]; [10],0.06
COc1cc(C(=O)NCc2ccc(OCCN(C)C)cc2)cc(OC)c1OC [Trimethobenzamide hydrochloride],Cholesterol-free,[1]; [11],0.8254
same,Complete,[1]; [12],0.9013
same,Difference,[1]; [13],0.08
same,Cholesterol-free media + simvastatin (0.04 μM),[2]; [14],1.241
same,Complete Media,[2]; [15],0.874
same,Difference,[2]; [7],−0.37
COc1cc(Cc2cnc(N)nc2N)cc(OC)c1OC [Trimethoprim],Cholesterol-free,[1]; [11],0.567
same,Complete,[1]; [12],1.096
same,Difference,[1]; [13],0.53
same,Cholesterol-free media + simvastatin (0.04 μM),[2]; [14],1.335
same,Complete Media,[2]; [15],1.064
same,Difference,[2]; [7],−0.27
COc1cc(NCc2ccc3nc(N)nc(N)c3c2C)cc(OC)c1OC [Trimetrexate],Difference,[1]; [3],−0.04
same,Cholesterol-free,[1]; [11],0.1317
same,Complete,[1]; [12],0.09583
same,Cholesterol-free media + simvastatin (0.04 μM),[2]; [16],0.2201
same,Complete Media,[2]; [17],0.1203
same,Difference,[2]; [7],−0.10
Cc1cc2cc3c(C)cc(=O)oc3c(C)c2o1 [Trioxsalen],Cholesterol-free,[1]; [11],1.107
same,Complete,[1]; [12],1.239
same,Difference,[1]; [13],0.13
same,Cholesterol-free media + simvastatin (0.04 μM),[2]; [16],1.056
same,Complete Media,[2]; [17],0.9717
same,Difference,[2]; [7],−0.08
CN(C)CCN(Cc1ccccc1)c1ccccn1 [Tripelennamine (hydrochloride)],Difference,[1]; [18],−0.13
same,Cholesterol-free,[1]; [19],1.185
same,Complete,[1]; [17],1.051
same,Cholesterol-free media + simvastatin (0.04 μM),[2]; [14],1.12
same,Complete Media,[2]; [15],0.8343
same,Difference,[2]; [7],−0.29
Cc1ccc(/C(=C\CN2CCCC2)c2ccccn2)cc1 [Triprolidine (hydrochloride monohydrate)],Difference,[1]; [18],−0.13
same,Cholesterol-free,[1]; [19],1.24
same,Complete,[1]; [17],1.107
same,Cholesterol-free media + simvastatin (0.04 μM),[2]; [14],1.806
same,Complete Media,[2]; [15],1.191
same,Difference,[2]; [7],−0.61
CC(C)[C@]12O[C@H]1[C@@H]1O[C@]13[C@]1(O[C@H]1C[C@H]1C4=C(CC[C@@]13C)C(=O)OC4)[C@@H]2O [Triptolide],Difference,[1]; [20],−0.01
same,Cholesterol-free,[1]; [11],0.04113
same,Complete,[1]; [12],0.03049
same,Cholesterol-free media + simvastatin (0.04 μM),[2]; [21],0.007136
same,Complete Media,[2]; [22],−0.02177
same,Difference,[2]; [23],−0.03
CC(C)[C@]12O[C@H]1[C@@H]1O[C@@]13[C@@]1(C)CCC4=C(COC4=O)[C@@H]1C[C@@H]1O[C@@]13C2=O [Triptonide],Difference,[1]; [20],−0.01
same,Cholesterol-free,[1]; [11],0.01808
same,Complete,[1]; [12],0.005807
same,Cholesterol-free media + simvastatin (0.04 μM),[2]; [21],0.02446
same,Complete Media,[2]; [22],0.02522
same,Difference,[2]; [23],0.00
Cc1c(C)c2c(c(C)c1O)CCC(C)(COc1ccc(CC3SC(=O)NC3=O)cc1)O2 (centres unmarked) [Troglitazone],Cholesterol-free,[1]; [11],0.7956
same,Complete,[1]; [12],1.359
same,Difference,[1]; [13],0.56
same,Cholesterol-free media + simvastatin (0.04 μM),[2]; [16],0.9725
same,Complete Media,[2]; [17],0.8929
same,Difference,[2]; [7],−0.08
CN(C)CCOCC(=O)NC12CC3CC(CC(C3)C1)C2 [Tromantadine (hydrochloride)],Difference,[1]; [3],−0.20
same,Cholesterol-free,[1]; [4],0.9414
same,Complete,"[1]; NCI-H292 cells, complete media",0.7414
same,Cholesterol-free media + simvastatin (0.04 μM),[2]; [5],1.251
same,Complete Media,[2]; [6],1.005
same,Difference,[2]; [7],−0.25
Cl.NC(CO)(CO)CO [Trometamol (hydrochloride)],Cholesterol-free,[1],0.9218
same,Complete,[1],0.6947
same,Difference,[1],−0.23
same,Cholesterol-free media + simvastatin (0.04 μM),[2],1.673
same,Complete Media,[2],1.379
same,Difference,[2],−0.29
NC(CO)(CO)CO [Trometamol],Cholesterol-free,[1]; [4],1.471
same,Complete,"[1]; NCI-H292 cells, complete media",1.133
same,Difference,[1]; [24],−0.34
same,Cholesterol-free media + simvastatin (0.04 μM),[2]; [16],1.116
same,Complete Media,[2]; [17],0.9694
same,Difference,[2]; [7],−0.15
CN1[C@@H]2CC[C@H]1C[C@@H](OC(=O)c1c[nH]c3ccccc13)C2 [Tropisetron (Hydrochloride)],Difference,[1]; [3],−0.30
same,Cholesterol-free,[1]; [4],1.166
same,Complete,"[1]; NCI-H292 cells, complete media",0.8628
same,Cholesterol-free media + simvastatin (0.04 μM),[2]; [16],1.118
same,Complete Media,[2]; [17],0.9866
same,Difference,[2]; [7],−0.13
CN1[C@@H]2CC[C@H]1C[C@@H](OC(=O)c1c[nH]c3ccccc13)C2 [Tropisetron],Cholesterol-free,[1]; [4],1.242
same,Complete,"[1]; NCI-H292 cells, complete media",0.8867
same,Difference,[1]; [24],−0.36
same,Cholesterol-free media + simvastatin (0.04 μM),[2]; [16],0.8445
same,Complete Media,[2]; [17],1.139
same,Difference,[2]; [10],0.29
O=C(O[C@H]1C[C@H]2CC[C@@H](C1)[N+]21CCCC1)C(O)(c1ccccc1)c1ccccc1.[Cl-] [Trospium (chloride)],Cholesterol-free,[1]; [11],1.278
same,Complete,[1]; [12],1.859
same,Difference,"[1]; complete vs cholesterol-free media, […]",0.58
same,Cholesterol-free media + simvastatin (0.04 μM),[2]; [14],2.08
same,Complete Media,[2]; [15],1.646
same,Difference,"[2]; complete media vs cholesterol-free media + simvastatin (0.04 μM), […]",−0.43
N[C@@H]1[C@H]2CN(c3nc4c(cc3F)c(=O)c(C(=O)O)cn4-c3ccc(F)cc3F)C[C@@H]12 [Trovafloxacin],Cholesterol-free,[1]; [4],1.186
same,Complete,"[1]; NCI-H292 cells, complete media",0.8678
same,Difference,[1]; [24],−0.32
same,Cholesterol-free media + simvastatin (0.04 μM),[2]; [8],1.092
same,Complete Media,[2]; [9],1.114
same,Difference,[2]; [10],0.02
C[C@@H]1O[C@@H](OC[C@H]2O[C@@H](Oc3c(-c4ccc(OCCO)c(OCCO)c4)oc4cc(OCCO)cc(O)c4c3=O)[C@H](O)[C@@H](O)[C@@H]2O)[C@H](O)[C@H](O)[C@H]1O [Troxerutin],Difference,[1]; [18],−0.13
same,Cholesterol-free,[1]; [19],1.15
same,Complete,[1]; [17],1.021
same,Cholesterol-free media + simvastatin (0.04 μM),[2]; [8],0.8482
same,Complete Media,[2]; [9],0.9455
same,Difference,[2]; [10],0.10
COc1cc(C(=O)NC2CCCNC2)cc(OC)c1OC (centres unmarked) [Troxipide],Difference,[1]; [25],−0.70
same,Cholesterol-free,[1]; [26],1.812
same,Complete,[1]; [27],1.111
same,Cholesterol-free media + simvastatin (0.04 μM),[2]; [14],1.578
same,Complete Media,[2]; [15],1.185
same,Difference,[2]; [7],−0.39
Nc1cc(F)ccc1NC(=O)c1ccc(CNC(=O)/C=C/c2cccnc2)cc1 [Tucidinostat],Difference,[1]; [25],−0.51
same,Cholesterol-free,[1]; [26],1.245
same,Complete,[1]; [27],0.7308
same,Cholesterol-free media + simvastatin (0.04 μM),[2]; [8],0.5739
same,Complete Media,[2]; [9],0.6176
same,Difference,[2]; [10],0.04
CC(C)(C)NCC(O)c1ccccc1Cl (centres unmarked) [Tulobuterol (hydrochloride)],Difference,[1]; [25],−0.62
same,Complete,[1]; [27],0.9988
same,Cholesterol-free media + simvastatin (0.04 μM),[2]; [16],1.041
same,Complete Media,[2]; [17],1.605
same,Difference,[2]; [10],0.56
CCCOc1ccc(S(=O)(=O)NCCC2CCCN2C)cc1-c1nc2c(CCC)nn(C)c2c(=O)[nH]1 (centres unmarked) [Udenafil],Difference,[1]; [3],−0.28
same,Cholesterol-free,[1]; [4],1.473
same,Complete,"[1]; NCI-H292 cells, complete media",1.195
same,Cholesterol-free media + simvastatin (0.04 μM),[2]; [8],1.921
same,Complete Media,[2]; [9],2.002
same,Difference,[2]; [10],0.08
CC(=O)O[C@]1(C(C)=O)CC[C@H]2[C@@H]3CCC4=CC(=O)CCC4=C3[C@@H](c3ccc(N(C)C)cc3)C[C@@]21C [Ulipristal acetate],Cholesterol-free,[1]; [4],1.13
same,Complete,"[1]; NCI-H292 cells, complete media",0.8186
same,Difference,[1]; [24],−0.31
same,Cholesterol-free media + simvastatin (0.04 μM),[2]; [21],0.6984
same,Complete Media,[2]; [22],0.695
same,Difference,"[2]; complete media minus cholesterol-free media + simvastatin (0.04 μM), >0 enhanced anti-cancer activity, about 0 neutral, <0 antagonist",0.00
OC(c1ccccc1)(c1ccccc1)C12CC[N+](CCOCc3ccccc3)(CC1)CC2.[Br-] [Umeclidinium (bromide)],Cholesterol-free,[1],0.5848
same,Complete,[1],0.7554
same,Difference,[1],0.17
same,Cholesterol-free media + simvastatin (0.04 μM),[2],1.336
same,Complete Media,[2],0.9344
same,Difference,[2],−0.40
CCOC(=O)c1c(CSc2ccccc2)n(C)c2cc(Br)c(O)c(CN(C)C)c12 [Umifenovir (hydrochloride)],Cholesterol-free,[1]; [4],1.088
same,Complete,"[1]; NCI-H292 cells, complete media",0.7625
same,Difference,[1]; [24],−0.33
same,Cholesterol-free media + simvastatin (0.04 μM),[2]; [16],0.9009
same,Complete Media,[2]; [17],1.225
same,Difference,[2]; [10],0.32
CC[C@@H]1CN(C(=O)NCC(F)(F)F)C[C@@H]1c1cnc2cnc3[nH]ccc3n12 [Upadacitinib],Difference,[1]; [25],−0.51
same,Cholesterol-free,[1]; [26],1.213
same,Complete,[1]; [27],0.7003
same,Cholesterol-free media + simvastatin (0.04 μM),[2]; [5],0.7425
same,Complete Media,[2]; [6],0.5732
same,Difference,[2]; [7],−0.17
O=c1cc[nH]c(=O)[nH]1 [Uracil],Difference,[1]; [18],−0.17
same,Cholesterol-free,[1]; [19],1.032
same,Complete,[1]; [17],0.8653
same,Cholesterol-free media + simvastatin (0.04 μM),[2]; [14],1.203
same,Complete Media,[2]; [15],0.8949
same,Difference,[2]; [7],−0.31
